Two molecules from patent US6458381B1, “Lipids and their use, for example, in liposomes” (priority 1996, dated 2002) can be followed below.

Common to all, as to format: cell-based, human
Assay [1] deals with HeLa cells. Nature of the assay: Intracellular delivery of fluorescein labelled phosphothioate oligonucleotide, fluorescent microscopy. How it is done: HeLa cells (plated one day before the experiment, 2×10^5 cells per well, 6-well plate) were grown on glass microscope slides in 2 ml of RPMI 1640 supplemented with 10% FCS. Before the experiment, the medium was replaced with RPMI 1640 without serum.
Formation of oligonucleotide-compound (1) complexes was done as follows. 10 μg of phosphothioate oligonucleotide was dissolved in […] of transfection buffer. 16 μg and 50 μg of compound (1) were diluted with transfection buffer to the final volume of 100 μl. The two solutions were mixed together and incubated for 10 min. Oligonucleotide solution without compound (1) was diluted with 100 μl of transfection buffer. The resultant solutions (200 μl per well) were added to the cell cultures (final concentration of oligonucleotide was about 1 μM, compound (1) 8 μM and 25 μM). The complexes were incubated with the cells for 4 hours. The medium was then substituted with a complete growth medium.
At 4 and 24 hours, cells were washed three times with PBS and fixed with 1% glutaraldehyde solution for 15 min. After fixation, cells were washed three times with PBS and mounted in glycerol mounting solution (10 mM phosphate, 150 mM NaCl, 70% glycerol, pH 7.5). The localization of fluorescein labelled phosphothioate oligonucleotide was determined by fluorescent microscopy, using a Zeiss fluorescent microscope.

Assay [2] concerns HeLa cells. Nature of the assay: Intracellular delivery of fluorescein labelled anionic polypeptide, fluorescent microscopy. Conditions: 1 μM labelled polyanion in the presence of 25 μM compound (1).
For assay [3], the system named is HeLa cells. Nature of the assay: Transfection of HeLa cells with pCMVL, luciferase assay.
Experimental: The cells were resuspended in fresh medium and placed either in 24-well plates (5×10^4 cells per well) or in 6-well plates (2-2.5×10^4 cells per well). Just before transfection, the cells were placed in fresh medium with or without 10% FCS. In general, cells were transfected at 50 to 70% confluence. […] Cell debris was removed by centrifugation (14000 rpm for 2 min). Usually, enzyme activity (see below) was determined directly after cell lysis.
Plasmid DNA (from a stock solution of a concentration of about 1 mg/ml) and cationic lipids (from a stock solution of a concentration 1 to 2 mg/ml) were diluted separately in 1.5 ml Eppendorf tubes with 10 mM Hepes, 0.9% NaCl buffer, pH 7.4, to the final volume of 100 μl. The amount of DNA in typical transfections varied from 1 to 2 μg per 100 μl. The amount of a cationic lipid varied from 0 to 20 μg per 100 μl. Two solutions were mixed together to form a DNA-lipid solution. After incubation for 10 min at room temperature the resultant DNA-lipid solution was added to the cell cultures, growing as described before, and gently mixed. Alternatively, the DNA-lipid solution was diluted with 800 μl (for 24- or 6-well plates) of the appropriate medium (+/−FCS) and mixed. The diluted solution was then overlayed onto the cells, rinsed with the appropriate medium. […] A typical incubation time in the absence of serum was 4 hours. The transfection medium was then substituted with a complete growth medium. In the presence of serum, the transfection medium was usually not replaced and the cells continued to grow in the presence of complexes until the end of experiments (one step transfection).
Luciferase assay. […] The luciferase assay was performed by adding 5 to 10 μl of cell extract.
Just before transfection, the medium was removed and cells were supplied with 1 ml fresh medium with or without serum. […] In the absence of serum, the transfection medium was removed after 4 hours, and the cells were supplied with 1 ml fresh serum supplemented medium. […]
In assay [4] the test system is K562 cells. Nature of the assay: Transfection of K562 suspension cells with pCMVL, luciferase assay. The following applies: K562, presence of serum.
Experimental: HeLa (CCL2, epitheloid carcinoma, human), COS-7 (CRL 1651, kidney, SV-40 transformed, African green monkey), HT-29 (HTB 38, adenocarcinoma, colon, human), CV-1 (CCL 70, kidney, African green monkey), 818-4 (adenocarcinoma, pancreas, human), H4IIE (CRL 1548; hepatoma, rat), K562 (CCL 243; chronic myelogenous leukemia, human), HL-60 (CCL 240; promyelotic leukemia, human) were grown in 5% CO2 at 37° C. on plastic tissue culture flasks in RPMI 1640 or DMEM with 10% fetal calf serum and supplemented with penicillin at 100 units per ml, streptomycin at 100 μg per ml, 2 mM glutamine and 0.1 μM dexamethasone for H4IIE cells.
At 24 hours before transfection, the cells were placed in fresh complete growth medium. Just before transfection, the cells were collected, resuspended in fresh medium with or without 10% FCS at 0.25×10^6 cells per ml, and placed in 24-well plates, 2 ml per well.
The cells were normally harvested 24 hours after transfection (the time of harvesting is an important variable and should be optimized), collected by centrifugation and resuspended in 10 ml of PBS, again centrifuged, and the cell pellet was transferred into a 1.5 ml Eppendorf tube with 1 ml PBS. The cells were centrifuged in the Eppendorf centrifuge (14000 rpm for 20 sec), The resulting cells were lysed in 100 μl of lysis buffer (described above). […]

Take “5′-ACT TGG ATA CGC ACG-fluorescein-3 [fluorescein labelled oligonucleotide, reference compound]”: the fluorescence of cells entry in assay [1] (1 μM fluorescein labelled oligonucleotide alone, after 4 and 24 hours, without serum) was “faint fluorescence”. Moreover, in assay [1] (experiments performed in the presence of serum), the “effect of serum on fluorescence and distribution” value is “did not change the overall fluorescence and distribution”.
With `CCCCCCCC/C=C\CCCCCCCC(=O)OCCN(CCOC(=O)CCCCCCC/C=C\CCCCCCCC)C(=O)[C@@H](N)CCCCN.Cl.Cl` [Compound 1, L-Lysine-bis(O,O′-oleoyl-β-hydroxyethyl)amide dihydrochloride], the fluorescence of cells result in assay [2] (after 45 min) is on record as “bright cytoplasmic punktate fluorescence”; in assay [2] (after 24 hours), “very bright punktate fluorescence in the cytoplasm”; in assay [1] (1 μM fluorescein labelled oligonucleotide in the presence of compound (1) (8 μM and 25 μM), 4 hours), “very bright punktate fluorescence in the cytoplasm”; in assay [1] (1 μM fluorescein labelled oligonucleotide in the presence of compound (1), after 24 hours) it was “very clear punktate fluorescence in the cytoplasm”. Moreover, the “transfection in comparison to DOTAP transfection” value is reported as 6 fold in assay [3] (absence of serum) and 12 fold in assay [3] (presence of serum). The “time after which the same luciferase activity (4.5×10^4 light units) was observed” value in assay [3] (with serum) worked out at 3 hours. The “transfection higher than obtained with DOTAP” value in assay [4] is given as “more than 10 fold”. Moreover, the “fluorescence intensity at 25 μM compared with 8 μM compound (1)” value in assay [1] (1 μM fluorescein labelled oligonucleotide) was “higher”.
